ChEMBL document CHEMBL1201862, “PubChem BioAssay data set” (2004)
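Values below derive from 48-hour exposures of cells grown in 96-well plates, with endpoints linearly interpolated between the two concentrations bracketing the appropriate inhibition level. Here, GI50 denotes the concentration required for 50% inhibition of growth.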 The source made the active and inactive calls. Rule as the data show it: active = GI50 up to about 1.1 µM and inactive = higher.

Key:
Experiment in all cases: growth of human tumour cells (NCI), 48 h
T47D = test system: T47D
SF-295 = test system: SF-295
MCF7 = test system: MCF7
MDA-N = test system: MDA-N
DU-145 = test system: DU-145
K562 = test system: K562
NCI/ADR-RES = test system: NCI/ADR-RES
SF-268 = test system: SF-268
CAKI-1 = test system: CAKI-1
HL-60 = test system: HL-60
A498 = test system: A498
786-0 = test system: 786-0
M14 = test system: M14
HOP-62 = test system: HOP-62
HOP-92 = test system: HOP-92
LOX IMVI = test system: LOX IMVI
Malme-3M = test system: Malme-3M
EKVX = test system: EKVX
RPMI-8226 = test system: RPMI-8226
COLO 205 = test system: COLO 205
HCT-116 = test system: HCT-116
MDA-MB-435 = test system: MDA-MB-435
SK-MEL-28 = test system: SK-MEL-28
SK-MEL-5 = test system: SK-MEL-5
OVCAR-4 = test system: OVCAR-4
KM12 = test system: KM12
BT-549 = test system: BT-549
MDA-MB-231 = test system: MDA-MB-231
UACC-257 = test system: UACC-257
CCRF-CEM = test system: CCRF-CEM
OVCAR-5 = test system: OVCAR-5
NCI-H23 = test system: NCI-H23
NCI-H226 = test system: NCI-H226
A549 = test system: A549
UACC-62 = test system: UACC-62
SK-MEL-2 = test system: SK-MEL-2
SR = test system: SR
RXF 393 = test system: RXF 393
PC-3 = test system: PC-3
NCI-H522 = test system: NCI-H522
IGROV-1 = test system: IGROV-1
SN12C = test system: SN12C
NCI-H460 = test system: NCI-H460
HT-29 = test system: HT-29
SW-620 = test system: SW-620
SK-OV-3 = test system: SK-OV-3
SNB-75 = test system: SNB-75
Hs-578T = test system: Hs-578T
OVCAR-8 = test system: OVCAR-8
OVCAR-3 = test system: OVCAR-3
MOLT-4 = test system: MOLT-4
HCC 2998 = test system: HCC 2998
U-251 = test system: U-251
UO-31 = test system: UO-31
SNB-19 = test system: SNB-19
ACHN = test system: ACHN
HCT-15 = test system: HCT-15

SMILES: O=CC1OC(=O)c2cc(O)c(O)c(O)c2-c2c(cc(O)c(O)c2O)C(=O)OC1C1OC(=O)c2cc(O)c(O)c(O)c2-c2c(O)c(O)c3oc(=O)c4c(c(O)c(O)c5oc(=O)c2c3c54)-c2c(cc(O)c(O)c2O)C(=O)OCC1O (configuration not stated)
- GI50 (T47D): 43.1 µM (inactive)
- GI50 (SF-295): 18.7 µM (inactive)
- GI50 (MCF7): 19.6 µM (inactive)
- GI50 (MDA-N): 20.4 µM (inactive)
- GI50 (DU-145): 50.6 µM (inactive)
- GI50 (K562): 26.7 µM (inactive)
- GI50 (NCI/ADR-RES): 36.8 µM (inactive)
- GI50 (SF-268): 56.9 µM (inactive)
- GI50 (CAKI-1): 12.1 µM (inactive)
- GI50 (HL-60): 20.9 µM (inactive)
- GI50 (A498): 5.94 µM (inactive)
- GI50 (786-0): 18.7 µM (inactive)
- GI50 (M14): 24.5 µM (inactive)
- GI50 (HOP-62): 44.3 µM (inactive)
- GI50 (HOP-92): 16.6 µM (inactive)
- GI50 (LOX IMVI): 11.2 µM (inactive)
- GI50 (Malme-3M): 94.4 µM (inactive)
- GI50 (EKVX): 16.9 µM (inactive)
- GI50 (RPMI-8226): 57.8 µM (inactive)
- GI50 (COLO 205): 26 µM (inactive)
- GI50 (HCT-116): 16.9 µM (inactive)
- GI50 (MDA-MB-435): 22.3 µM (inactive)
- GI50 (SK-MEL-28): > 100 µM (inactive)
- GI50 (SK-MEL-5): 18.2 µM (inactive)
- GI50 (OVCAR-4): 14.2 µM (inactive)
- GI50 (KM12): 20.3 µM (inactive)
- GI50 (BT-549): > 100 µM (inactive)
- GI50 (MDA-MB-231): 13.9 µM (inactive)
- GI50 (UACC-257): 46.2 µM (inactive)
- GI50 (CCRF-CEM): 24.3 µM (inactive)
- GI50 (OVCAR-5): 29.6 µM (inactive)
- GI50 (NCI-H23): 30.8 µM (inactive)
- GI50 (NCI-H226): 32.4 µM (inactive)
- GI50 (A549): 24.9 µM (inactive)
- GI50 (UACC-62): 29.4 µM (inactive)
- GI50 (SK-MEL-2): > 100 µM (inactive)
- GI50 (SR): 39.7 µM (inactive)
- GI50 (RXF 393): 57 µM (inactive)
- GI50 (PC-3): 38.2 µM (inactive)
- GI50 (NCI-H522): 18.2 µM (inactive)
- GI50 (IGROV-1): 39.4 µM (inactive)
- GI50 (SN12C): 16.6 µM (inactive)
- GI50 (NCI-H460): 20.7 µM (inactive)
- GI50 (HT-29): 13.4 µM (inactive)
- GI50 (SW-620): 19.3 µM (inactive)
- GI50 (SK-OV-3): 50.6 µM (inactive)
- GI50 (SNB-75): 13.9 µM (inactive)
- GI50 (Hs-578T): 44.7 µM (inactive)
- GI50 (OVCAR-8): 19.3 µM (inactive)
- GI50 (OVCAR-3): 39.7 µM (inactive)
- GI50 (MOLT-4): 26.1 µM (inactive)
- GI50 (HCC 2998): 33.4 µM (inactive)
- GI50 (U-251): 17.9 µM (inactive)
- GI50 (UO-31): 23.4 µM (inactive)
- GI50 (SNB-19): 72.3 µM (inactive)
- GI50 (ACHN): 35.2 µM (inactive)
- GI50 (HCT-15): 15.7 µM
